Data taken from ChEMBL document CHEMBL2321647 (ACS Med Chem Lett, 2013).

What was measured:
Histone deacetylase 1 = Histone deacetylase 1 (Homo sapiens, UniProt Q13547); experiment: Inhibition of C-terminal His-tagged and C-terminal FLAG-tagged full length human recombinant HDAC1 expressed in baculovirus expression system using fluorogenic acetylated peptide as substrate preincubated with enzyme for 10 mins prior to substrate addition measured after 60 mins by fluorescence analysis
Histone deacetylase 3 = Histone deacetylase 3 (Homo sapiens, UniProt O15379); experiment: Inhibition of C-terminal His-tagged full length human recombinant HDAC3 co-expressed with NcoR2 in baculovirus expression system using fluorogenic acetylated peptide as substrate preincubated with enzyme for 10 mins prior to substrate addition measured after 60 mins by fluorescence analysis
Histone deacetylase 2 = Histone deacetylase 2 (Homo sapiens, UniProt Q92769); experiment: Inhibition of C-terminal His-tagged full length human recombinant HDAC2 expressed in baculovirus expression system using fluorogenic acetylated peptide as substrate preincubated with enzyme for 10 mins prior to substrate addition measured after 60 mins by fluorescence analysis
Histone deacetylase 9 = Histone deacetylase 9 (Homo sapiens, UniProt Q9UKV0); experiment: Inhibition of C-terminal His-tagged human recombinant HDAC9 (amino acids 604- 1066) expressed in baculovirus expression system using fluorogenic acetylated peptide as substrate preincubated with enzyme for 10 mins prior to substrate addition measured after 60 mins by fluorescence analysis
Chain of Histone deacetylase 9 (Q9UKV0 whole entry, the tested form may be a part): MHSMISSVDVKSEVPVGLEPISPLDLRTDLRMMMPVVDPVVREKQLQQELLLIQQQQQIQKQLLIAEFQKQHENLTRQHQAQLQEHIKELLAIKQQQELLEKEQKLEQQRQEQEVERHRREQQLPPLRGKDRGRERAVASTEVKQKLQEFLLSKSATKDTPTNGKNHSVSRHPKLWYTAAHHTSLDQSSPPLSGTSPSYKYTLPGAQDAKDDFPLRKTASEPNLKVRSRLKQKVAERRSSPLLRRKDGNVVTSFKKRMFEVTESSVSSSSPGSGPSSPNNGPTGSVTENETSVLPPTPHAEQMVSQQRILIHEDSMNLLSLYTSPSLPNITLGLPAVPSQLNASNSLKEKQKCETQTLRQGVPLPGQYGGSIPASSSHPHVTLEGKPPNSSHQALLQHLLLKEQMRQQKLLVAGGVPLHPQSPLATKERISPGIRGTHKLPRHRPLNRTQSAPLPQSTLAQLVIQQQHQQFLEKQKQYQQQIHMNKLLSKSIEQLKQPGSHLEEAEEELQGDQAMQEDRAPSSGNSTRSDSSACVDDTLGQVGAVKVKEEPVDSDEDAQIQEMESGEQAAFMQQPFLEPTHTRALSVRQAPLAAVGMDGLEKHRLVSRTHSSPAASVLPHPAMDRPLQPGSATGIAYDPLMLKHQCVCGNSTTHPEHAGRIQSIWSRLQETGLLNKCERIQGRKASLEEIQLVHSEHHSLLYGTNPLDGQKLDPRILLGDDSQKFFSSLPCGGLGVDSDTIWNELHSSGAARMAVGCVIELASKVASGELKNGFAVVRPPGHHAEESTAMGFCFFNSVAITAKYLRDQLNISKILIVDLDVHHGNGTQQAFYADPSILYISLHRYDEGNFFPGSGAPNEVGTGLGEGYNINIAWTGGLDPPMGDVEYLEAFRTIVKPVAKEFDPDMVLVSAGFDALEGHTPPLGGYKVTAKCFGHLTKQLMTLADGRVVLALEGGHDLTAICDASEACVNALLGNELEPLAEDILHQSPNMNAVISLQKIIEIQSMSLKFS

Chain of Histone deacetylase 3 (O15379 whole entry): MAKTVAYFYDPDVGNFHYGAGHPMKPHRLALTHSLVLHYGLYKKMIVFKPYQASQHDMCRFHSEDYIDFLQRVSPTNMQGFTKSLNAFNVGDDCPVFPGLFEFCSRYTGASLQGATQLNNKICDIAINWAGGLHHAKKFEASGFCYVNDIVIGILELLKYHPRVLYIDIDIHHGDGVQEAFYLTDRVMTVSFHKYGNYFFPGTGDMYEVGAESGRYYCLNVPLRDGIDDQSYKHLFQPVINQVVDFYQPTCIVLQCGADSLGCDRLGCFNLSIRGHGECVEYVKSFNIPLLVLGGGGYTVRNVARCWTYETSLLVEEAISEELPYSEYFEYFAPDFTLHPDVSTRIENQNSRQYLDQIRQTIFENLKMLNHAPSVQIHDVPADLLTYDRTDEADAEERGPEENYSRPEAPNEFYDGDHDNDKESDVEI
Chain of Histone deacetylase 2 (Q92769 whole entry, the tested form may be a part): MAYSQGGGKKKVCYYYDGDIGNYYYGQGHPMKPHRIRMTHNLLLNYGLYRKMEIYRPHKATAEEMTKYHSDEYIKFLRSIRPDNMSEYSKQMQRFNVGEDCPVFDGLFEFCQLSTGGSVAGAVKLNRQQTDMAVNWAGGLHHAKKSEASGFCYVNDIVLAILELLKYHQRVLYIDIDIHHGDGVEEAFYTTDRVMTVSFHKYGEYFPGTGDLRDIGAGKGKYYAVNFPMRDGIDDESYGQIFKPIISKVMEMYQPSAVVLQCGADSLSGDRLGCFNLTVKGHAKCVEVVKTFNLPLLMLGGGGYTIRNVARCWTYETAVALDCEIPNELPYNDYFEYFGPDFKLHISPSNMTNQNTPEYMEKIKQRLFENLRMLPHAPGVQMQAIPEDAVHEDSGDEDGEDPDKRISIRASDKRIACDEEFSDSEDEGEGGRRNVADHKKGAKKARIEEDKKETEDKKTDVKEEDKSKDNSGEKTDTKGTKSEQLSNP
Chain of Histone deacetylase 1 (Q13547 whole entry): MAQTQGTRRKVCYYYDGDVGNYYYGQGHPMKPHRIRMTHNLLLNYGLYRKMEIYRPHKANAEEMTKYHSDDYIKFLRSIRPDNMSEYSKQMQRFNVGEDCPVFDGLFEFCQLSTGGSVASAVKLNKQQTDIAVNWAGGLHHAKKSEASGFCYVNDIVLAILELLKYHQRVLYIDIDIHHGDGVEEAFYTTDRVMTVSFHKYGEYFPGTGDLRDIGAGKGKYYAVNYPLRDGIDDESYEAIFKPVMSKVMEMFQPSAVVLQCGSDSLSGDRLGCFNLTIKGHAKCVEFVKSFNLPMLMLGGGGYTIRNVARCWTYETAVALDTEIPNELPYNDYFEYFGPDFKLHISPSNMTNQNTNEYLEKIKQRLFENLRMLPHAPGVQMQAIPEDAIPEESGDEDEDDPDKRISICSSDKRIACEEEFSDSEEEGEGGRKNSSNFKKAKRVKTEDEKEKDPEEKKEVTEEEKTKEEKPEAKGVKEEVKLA

Row | IC50 (Histone deacetylase 1) [µM] | IC50 (Histone deacetylase 3) [µM] | IC50 (Histone deacetylase 2) [µM] | IC50 (Histone deacetylase 9) [µM] | SMILES
1 | 7.42 | 3.99 | 30.8 | > 100 | CCCCCCCC(=O)SCC/C=C/[C@@H]1CC(=O)NCc2nc(cs2)-c2nnn(n2)CC(=O)N[C@@H](C(C)C)C(=O)O1
2 | 0.1 | 0.031 | 0.224 | 34.6 | CC(C)[C@@H]1NC(=O)Cn2nnc(n2)-c2csc(n2)CNC(=O)C[C@@H](/C=C/CCS)OC1=O
3 | – | 10.4 | 25.1 | 18.4 | CCCCCCCC(=O)SCC/C=C/[C@@H]1CC(=O)NCc2nc(cs2)-c2nnnn2CC(=O)N[C@@H](C(C)C)C(=O)O1
4 | 1.67 | 0.649 | 3.27 | 16.2 | CC(C)[C@@H]1NC(=O)Cn2nnnc2-c2csc(n2)CNC(=O)C[C@@H](/C=C/CCS)OC1=O
5 | 17.6 | 14 | 32.1 | 63.2 | CCCCCCCC(=O)SCC/C=C/[C@@H]1CC(=O)NCc2nc(cs2)-c2cn(nn2)CC(=O)N[C@@H](C(C)C)C(=O)O1
6 | 2.35 | 0.885 | 3.88 | 32 | CC(C)[C@@H]1NC(=O)Cn2cc(nn2)-c2csc(n2)CNC(=O)C[C@@H](/C=C/CCS)OC1=O

Row | SMILES | IC50 (Histone deacetylase 1) [µM] | IC50 (Histone deacetylase 3) [µM] | IC50 (Histone deacetylase 2) [µM] | IC50 (Histone deacetylase 9) [µM]
7 | CCCCCCCC(=O)SCC/C=C/[C@@H]1CC(=O)NCc2nc(cs2)C2=N[C@@](C)(CS2)C(=O)N[C@@H](C(C)C)C(=O)O1 [LARGAZOLE] | 0.146 | – | 1.72 | 8.33
